Results on 14 compounds are retold here after patent US12098139B2, “Chemokine receptor modulators and uses thereof” (RAPT Therapeutics, Inc., priority 2018, dated 2024).

Each structure is given as a SMILES string.

For orientation: IC50 means the concentration at which inhibition is half-maximal.

One test concerns ovalbumin-induced pulmonary inflammation. The test is described as follows: Murine model of ovalbumin-induced pulmonary inflammation (BALF cell counts and mediators). In kind it is in vivo, mouse (female Balb/c). The note with it: 3 mg/kg p.o. daily; 24 hours after last ovalbumin challenge; vs OVA group. On the procedure: A study was performed to investigate the effects of daily oral administration of the compound 2-((R)-3-(1-(1-((R)-1-(2,4-Dichlorophenyl)ethyl)-3-(cyano)-1H-pyrazolo[3,4-b]pyrazin-6-yl)azetidin-3-yl)piperidin-1-yl)ethan-1-ol (FLX-A-12) (disclosed in US Patent Publication 2018-0072740 published Mar. 15, 2018) and the compound (1R,3r)-3-((R)-3-(1-(5-chloro-4-(((R)-1-(2,4-dichlorophenyl)ethyl)amino)-6-methylpyrimidin-2-yl)azetidin-3-yl)piperidin-1-yl)-1-methylcyclobutane-1-carboxylic acid (FLX-B-10) (disclosed in Example 38 herein) on the level of lung eosinophilia in a murine model of ovalbumin-induced pulmonary inflammation. An automated system of haematological cellular analysis (DASIT Sysmex XT-2000iV) was used to perform total and differential cell counts and assess the degree of ovalbumin challenge-induced pulmonary eosinophilia. FLX-A-12 and FLX-B-10 were administered daily for five days at the doses of 50 and 30-100 mg/kg respectively, and eosinophilic inflammation was measured 24 hours after the last ovalbumin challenge. Dexamethasone was included as a positive reference substance (3 mg/kg p.o. daily). On days 20-23 inclusive, mice received vehicle (30% PG in water), reference compound (Dexamethasone, 3 mg/kg) and test compounds (FLX-A-12 at 50 mg/kg and FLX-B-10 at 30 and 100 mg/kg), 1 hr prior ovalbumin challenge via the p.o. route. In addition, the test compounds (FLX-A-12 and FLX-B-10) were dosed on day 19 24 hr prior to the dosing on day 20.
FLX-A-12 was formulated at the concentration of 5 mg/mL (corresponding to the dose of 50 mg/kg in a dose volume of 10 mL/kg) in 30% PG in water. The doses of FLX-B-10 (30 and 100 mg/kg) were prepared by dissolving 3 and 10 mg/ml of the compound respectively in 30% PG in water at a dose volume of 10 ml/kg. The dose of Dexamethasone (3 mg/kg) was prepared by dissolving 0.3 mg/mL of the compound in 30% PG in water at a dose volume of 10 ml/kg.
The effects of FLX-A-12 and FLX-B-10 were assessed in the ovalbumin mouse model of pulmonary inflammation. The study was performed in female Balb/c mice, and included the following 6 treatment groups (n=10/group): (i) Vehicle group: challenged with saline and dosed with compound Vehicle, 1 hr before challenge; (ii) OVA/Vehicle group (control): challenged with ovalbumin and dosed with compound Vehicle, 1 hr before challenge; (iii) OVA/FLX-A-12 50 mg/kg (p.o.): challenged with ovalbumin and dosed with FLX-A-12, 1 hr before challenge; (iv) OVA/FLX-B-10 30 mg/kg (p.o.): challenged with ovalbumin and dosed with FLX-B-10, 1 hr before challenge; (v) OVA/FLX-B-10 100 mg/kg (p.o.): challenged with ovalbumin and dosed with FLX-B-10, 1 hr before challenge; and (vi) Dexamethasone 3 mg/kg (p.o.) group: challenged with ovalbumin and dosed with Dexamethasone, 1 hr before challenge.
The eosinophilic inflammation induced by ovalbumin-challenge (i.n.) was measured as cell count increase in bronchoalveolar lavage fluid (BALF) using an automated system of haematological cellular analysis (DASIT Sysmex XT-2000iV) at 24 hours after the last OVA-challenge. The effects of the test compounds were evaluated as ability to decrease the eosinophilic inflammation with respect to the OVA group.
For antigen sensitization, on day 1, animals received 10 μg of OVA in 2 mg of Aluminium hydroxide hydrate (AlOH3) at a dose volume of 200 μl per mouse subcutaneously (s.c.). On day 14, all animals got a second (boost) s.c. injection with the same dose of Alum/OVA as above.
On days 20-23 inclusive, mice received vehicle, 30% PG in water, reference compound (Dexamethasone 3 mg/kg) and test compounds (FLX-A-12 at 50 mg/kg and FLX-B-10 at 30 and 100 mg/kg), 1 hr prior OVA challenge via the p.o. route. In addition, test compounds (FLX-A-12 and FLX-B-10) were dosed on day 19, 24 hr prior to the dosing on day 20. All compounds were administered at a dose volume of 10 ml/kg. Dose volumes were calculated based on individual animal weight. […]
With `C[C@@H]1C[C@H]2[C@@H]3CCC4=CC(=O)C=C[C@]4(C)[C@@]3(F)[C@@H](O)C[C@]2(C)[C@@]1(O)C(=O)CO` [Dexamethasone, dexamethasone, reference compound], the “percentage of reduction in the eosinophilic cell count in BALF” value worked out at 92%.

The same test, now with this note: 50 mg/kg p.o.; vs OVA group (FIG. 3).
Consider `C[C@H](c1ccc(Cl)cc1Cl)n1nc(C#N)c2ncc(N3CC([C@H]4CCCN(CCO)C4)C3)nc21` [FLX-A-12, 2-((R)-3-(1-(1-((R)-1-(2,4-Dichlorophenyl)ethyl)-3-(cyano)-1H-pyrazolo[3,4-b]pyrazin-6-yl)azetidin-3-yl)piperidin-1-yl)ethan-1-ol, reference compound], for which the “IL-5 levels in BALF” value was “significantly reduced”.

Another test deals with T1, hCCR4 (Chem5-hCCR4 cells) (Homo sapiens, UniProt P51679).
T1 sequence (P51679 1-360): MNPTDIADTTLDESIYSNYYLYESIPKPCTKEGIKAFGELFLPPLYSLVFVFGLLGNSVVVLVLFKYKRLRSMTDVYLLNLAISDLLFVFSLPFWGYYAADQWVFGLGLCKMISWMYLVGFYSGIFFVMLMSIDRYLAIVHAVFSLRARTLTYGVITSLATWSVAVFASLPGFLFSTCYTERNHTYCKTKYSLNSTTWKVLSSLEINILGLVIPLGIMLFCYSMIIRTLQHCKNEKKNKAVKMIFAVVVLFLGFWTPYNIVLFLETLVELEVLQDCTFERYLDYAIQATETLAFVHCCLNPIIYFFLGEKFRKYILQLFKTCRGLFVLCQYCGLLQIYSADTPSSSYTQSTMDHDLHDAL
The test is described as follows: Calcium flux assay (CCL22-stimulated, FLIPR Calcium 6 dye). In kind it is cell-based. To be noted: Table 5, CCL22 1.5 nM, read-out: Potency (IC50). An outline of the steps: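 Chem5-hCCR4 cells were serum-starved 2 h and loaded 2 h with Calcium 6 dye plus 2.5 mM probenecid. They were then preincubated 1 h at 37 °C with compound (0.5% DMSO). CCL22 was added from a 7.5 nM working solution (5× EC80), and ΔF/Fmin at 485/525 nm was fitted 4-parameter for IC50.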
On the technique in general: A change in cytosolic calcium serves as a functional read-out for many receptors and channels.
On to `C[C@@H](Nc1nc(N2CC([C@H]3CCCN([C@H]4C[C@](C)(C(=O)O)C4)C3)C2)nc2ccc(F)cc12)c1ccc(Cl)cc1Cl` [Example 65, 3-[(1R,3R)-3-[1-[4-[[(1R)-1-(2,4-dichlorophenyl)ethyl]amino]-6-fluoro-quinazolin-2-yl]azetidin-3-yl]-1-piperidyl]-1-methyl-cyclobutanecarboxylic acid; 2,2,2-trifluoroacetic acid], for which the half-inhibitory concentration (IC50) is less than 100 nM.
Regarding `C[C@@H](Nc1nc(N2CC([C@H]3CCCN([C@H]4C[C@@H](C(=O)O)C4)C3)C2)nc2ccc(F)cc12)c1ccc(Cl)cc1Cl` [Example 66, 3-[(1S,3R)-3-[1-[4-[[(1R)-1-(2,4-dichlorophenyl)ethyl]amino]-6-fluoro-quinazolin-2-yl]azetidin-3-yl]-1-piperidyl]cyclobutanecarboxylic acid; 2,2,2-trifluoroacetic acid], the IC50 was less than 100 nM.
For `C[C@@H](Nc1nc(N2CC([C@H]3CCCN([C@H]4C[C@](C)(C(=O)O)C4)C3)C2)ncc1C(O)C1CC1)c1ccc(Cl)cc1Cl` (stereo partly drawn) [Example 70, 3-[(3R)-3-[1-[5-[cyclopropyl(hydroxy)methyl]-4-[[(1R)-1-(2,4-dichlorophenyl)ethyl]amino]pyrimidin-2-yl]azetidin-3-yl]-1-piperidyl]-1-methyl-cyclobutanecarboxylic acid; 2,2,2-trifluoroacetic acid], the IC50 was less than 100 nM.
With `CCC(O)c1cnc(N2CC([C@H]3CCCN([C@H]4C[C@](C)(C(=O)O)C4)C3)C2)nc1N[C@H](C)c1ccc(Cl)cc1Cl` (stereo partly drawn) [Example 73, 3-[(3R)-3-[1-[4-[[(1R)-1-(2,4-dichlorophenyl)ethyl]amino]-5-(1-hydroxypropyl)pyrimidin-2-yl]azetidin-3-yl]-1-piperidyl]-1-methyl-cyclobutanecarboxylic acid; 2,2,2-trifluoroacetic acid], the IC50 was less than 100 nM.
Consider `CC(C)C(O)c1cnc(N2CC([C@H]3CCCN([C@H]4C[C@](C)(C(=O)O)C4)C3)C2)nc1N[C@H](C)c1ccc(Cl)cc1Cl` (stereo partly drawn) [Example 76, 3-[(3R)-3-[1-[4-[[(1R)-1-(2,4-dichlorophenyl)ethyl]amino]-5-(1-hydroxy-2-methyl-propyl)pyrimidin-2-yl]azetidin-3-yl]-1-piperidyl]-1-methyl-cyclobutanecarboxylic acid; 2,2,2-trifluoroacetic acid], for which the IC50 was less than 100 nM.
Take `COC(C)c1cnc(N2CC([C@H]3CCCN([C@H]4C[C@](C)(C(=O)O)C4)C3)C2)nc1N[C@H](C)c1ccc(Cl)cc1Cl` (stereo partly drawn) [Example 79, 3-[(3R)-3-[1-[4-[[(1R)-1-(2,4-dichlorophenyl)ethyl]amino]-5-(1-methoxyethyl)pyrimidin-2-yl]azetidin-3-yl]-1-piperidyl]-1-methyl-cyclobutanecarboxylic acid; 2,2,2-trifluoroacetic acid]: the IC50 was less than 100 nM.
For the compound `C[C@@H](Nc1nc(N2CC([C@H]3CCCN(CCO)C3)C2)ncc1C(=O)N1CCCC1)c1ccc(Cl)cc1Cl` [Example 85, [4-[[(1R)-1-(2,4-dichlorophenyl)ethyl]amino]-2-[3-[(3R)-1-(2-hydroxyethyl)-3-piperidyl]azetidin-1-yl]pyrimidin-5-yl]-pyrrolidin-1-yl-methanone; 2,2,2-trifluoroacetic acid], the IC50 is 100 to 500 nM.
On to `C[C@@H](Nc1nc(N2CC(C3CCCN([C@H]4C[C@@H](O)C4)C3C(=O)O)C2)ncc1Cl)c1ccc(Cl)cc1Cl` (stereo partly drawn) [Example 87, 3-[1-[5-chloro-4-[[(1R)-1-(2,4-dichlorophenyl)ethyl]amino]pyrimidin-2-yl]azetidin-3-yl]-1-(3-hydroxycyclobutyl)piperidine-2-carboxylic acid; 2,2,2-trifluoroacetic acid], for which the IC50 was less than 100 nM.
Take `C[C@@H](Nc1nc(N2CC(C3CCCN(C4CC(CO)C4)C3C(=O)O)C2)ncc1Cl)c1ccc(Cl)cc1Cl` (stereo partly drawn) [Example 88, 3-[1-[5-chloro-4-[[(1R)-1-(2,4-dichlorophenyl)ethyl]amino]pyrimidin-2-yl]azetidin-3-yl]-1-[3-(hydroxymethyl)cyclobutyl]piperidine-2-carboxylic acid; 2,2,2-trifluoroacetic acid]: the IC50 was less than 100 nM.
Turning to `C[C@@H](Nc1nc(N2CC([C@H]3CCCN([C@H]4C[C@@H](C(=O)O)C4)C3)C2)ncc1C#N)c1ccc(Cl)cc1Cl` [Example 93, 3-[(3R)-3-[1-[5-cyano-4-[[(1R)-1-(2,4-dichlorophenyl)ethyl]amino]pyrimidin-2-yl]azetidin-3-yl]-1-piperidyl]cyclobutanecarboxylic acid], the IC50 fell in the range of 100 to 500 nM.
Consider `C[C@@H](Nc1nc(N2CC([C@H]3CCCN([C@H]4C[C@](C)(C(=O)O)C4)C3)C2)nc2ccccc12)c1ccc(Cl)cc1Cl` [Example 94, 3-[(1R,3R)-3-[1-[4-[[(1R)-1-(2,4-dichlorophenyl)ethyl]amino]quinazolin-2-yl]azetidin-3-yl]-1-piperidyl]-1-methyl-cyclobutanecarboxylic acid; 2,2,2-trifluoroacetic acid], for which the IC50 is less than 100 nM.
With `C[C@@H](Nc1nc(N2CC([C@H]3CCCN([C@H]4C[C@@H](C(=O)O)C4)C3)C2)nc2ccccc12)c1ccc(Cl)cc1Cl` [Example 95, 3-[(1S,3R)-3-[1-[4-[[(1R)-1-(2,4-dichlorophenyl)ethyl]amino]quinazolin-2-yl]azetidin-3-yl]-1-piperidyl]cyclobutanecarboxylic acid; 2,2,2-trifluoroacetic acid], the IC50 was less than 100 nM.
